These results are taken from US20160361251A1, “NOVEL PROCESS FOR PRODUCING TRANSMUCOSAL PHARMACEUTICAL FORMULATIONS AND FORMULATIONS THUS OBTAINED” (Clemann Group, priority 2013, published 2016).

The data set in a line: Dissolution of active ingredient in ternary mixture stearate 1500/TPGS/water. Type of data set: physicochemical.

Protocol: For this purpose, 10 g of ternary mixture are prepared from 4.50 g of stearate 1500, 500 mg of TPGS and 5 g of water at 50° C. This mixture is maintained at 50° C. with stirring for 5 minutes.
In an Erlenmeyer provided with magnetic stirring, 1.80 g of stearate 1500 and 200 mg of TPGS are mixed at 50° C. with stirring for 3 minutes in order to form a homogenous and intimate mixture of both polymers. The mixture is then slowly cooled to 40° C.
1 ml of an aqueous solution of rBetv1 is then prepared at a concentration of 3 mg/ml.
1 ml of this solution is then introduced into the previous mixture of molten polymer maintained at 40° C.

On to `CNCC(O)c1ccc(O)c(O)c1.O=C(O)C(O)C(O)C(=O)O` (centres unmarked) [adrenaline bitartrate], for which the “dissolution in ternary mixture” value (stearate 1500/TPGS/water 4.50 g/500 mg/5 g at 50° C., 4.54 g powder added) was “total and rapid”.

B1: rBetv1: recombinant allergen rBetv1, a characteristic allergen of trees of the order of fagales and in particular birch (protein, UniProt P15494 2-160, looked up)
Major pollen allergen Bet v …: GVFNYETETTSVIPAARLFKAFILDGDNLFPKVAPQAISSVENIEGNGGPGTIKKISFPEGFPFKYVKDRVDEVDHTNFKYNYSVIEGGPIGDTLEKISNEIKIVATPDGGSILKISNKYHTKGDHEVKAEQVKASKEMGETLLRAVESYLLAHSDAYN
For the molecule B1, under “1 ml of 3 mg/ml aqueous solution into 1.80 g stearate 1500 + 200 mg TPGS at 40° C.”, the “dissolution in molten polymer mixture” value was “complete and rapid”.
